Laboratory results taken from patent US9115061B2, “Naphthalene-based inhibitors of anti-apoptotic proteins” (BURNHAM INSTITUTE FOR MEDICAL RESEARCH, priority 2007, dated 2015).

Experiments:
BCL-2 transgenic mice = test: Oral efficacy study in BCL-2 transgenic mice (splenomegaly); format: in vivo, mouse; conditions: QDX5 for 3 weeks
Protocol: The transgene was propagated on the Balb/c background.
(§1) Spleens were removed and weighed.
Spleens were excised from sacrificed mice and cell suspensions treated with a mouse erythrocyte lysing kit (R & D Systems). Total splenocyte count was determined by typan blue dye exclusion assays using hemocytometers. The percentage of B-lymphocytes was determined by fluorescence activated cell sorter (FACS) analysis SACS-CANTO, Bectin-Dickinson Inc., Mountain View, Calif.) following staining cells with Phyco-Erytrin (PE)-conjugated anti-CD19 or -B220 antibodies (Becton Dickinson, San Jose, Calif. 95131).
Representative data are shown by FIGS. 11A and 11B.

Balb/c mice = test: Oral toxicity study in normal Balb/c mice; format: in vivo, mouse; conditions: […] oral, three weeks
Protocol: Compounds or vehicle control were dosed 15 times over 3 weeks, giving compounds daily for 5 consecutive days (Monday-Friday), resting on weekends.
Both compounds were provided by NCI-DTP (RAID-program). Compounds were dissolved in 100% sesame oil just before oral administration. Vehicle-control consisted of corresponding concentration of ascorbic acid suspended in 100% sesame oil.
as §1
Whole blood (250 μl) was collected in EDTA-coated glass tubes (purple top; MICROTAINER Brand Tube with EDTA, Catalogue #365973, Becton, Dickinson and Company, New Jersey 07417-1885) via either cardiac puncture or severing the brachial artery of anesthetized mice. After thorough mixing, specimens were analyzed using a VetScan HM2 (Abaxis Inc., Union City, Calif. 94587) hematology analyzer, measuring white blood cell count (WBC), red blood cell count (RBC), platelet (PLT) count, leukocyte differential (including % lymphocyte, % monocyte and % granulocyte), hematocrit (Ht), and hemoglobin (Hb).
(Eppendorf Centrifuge 5415C) for 2 minutes to separate serum from cells and fibrin clot. The resulting serum specimens were analyzed using an automated blood chemistry analyzer (“COBAS MIRA Classic”; Roche, Indianapolis, Ind. 46250-0414) to measure alanine aminotransferase (ALT) and aspartate aminotransferase AST), blood urea nitrogen (BUN), and […].
Stomach and intestines were examined also imaged by ultrasound for evidence of dilation, an indication of GI toxicity. Briefly, mice were anesthetized using a mixture of isofluorane (5%) and oxygen gas (95%), restrained on a heated table using Aquagel Lubrication Gel (Parker Laboratories, Inc., Fairfield, N.J. 07004), and abdominal hair was removed with a chemical depilation agent (Nair™ Hair Removal, Church & Dwight Co., Inc., Princeton, N.J. 08543). Aquasonic 100 Ultrasound Transmission Gel (Parker Laboratories, Inc., Fairfield, N.J. 07004) was applied to the abdomen prior to imaging using a high-frequency probe to assess gas and intestinal distention.
Immediately after ultrasound imaging, electrocardiogram (ECG) analysis of anesthetized mice was performed using a MP150 Biopack System.

BIR3 domain of XIAP = BIR3 domain of XIAP (Homo sapiens (Human), UniProt P98170); test: Reactivity test by [15N,1H]-correlation NMR; conditions: 1 mM gossypol, 200 μM BIR3, two hours
Chain of BIR3 domain of XIAP (P98170 241-356): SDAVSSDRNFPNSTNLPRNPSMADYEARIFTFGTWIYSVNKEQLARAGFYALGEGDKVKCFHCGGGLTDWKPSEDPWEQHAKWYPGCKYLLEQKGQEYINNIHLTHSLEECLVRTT
Protocol: Pure polyphenols were obtained from SIGMA (gossypol and purpurogallin) and/or from Microsource Discovery Systems (Purpurogallin derivatives). Reference compounds were obtained from Chembridge Corp. (San Diego). Gossypol was tested as a racemic mixture of (+) and (−) isomers. Compounds were dissolved in DMSO at 100 mM concentration and stored at −20 DC. NMR analysis was periodically performed on the compounds as a quality control, prior to further dilution for binding and displacement assays.

Cc1cc2c(C(C)C)c(O)c(O)c(C=O)c2c(O)c1-c1c(C)cc2c(C(C)C)c(O)c(O)c(C=O)c2c1O [Gossypol, gossypol]
tolerability, low dose (BCL-2 transgenic mice; 0.06 mmol/kg oral): well tolerated | shrinkage of spleen, low dose (BCL-2 transgenic mice; 0.06 mmol/kg oral, wet weight and B-cell count): induced shrinkage of spleen to a considerable extent but not significantly | tolerability, high dose (BCL-2 transgenic mice; […] oral): not tolerated | general condition of mice (Balb/c mice): lethagic with scruffy hair | reactivity with 15N-labeled BIR3, spectrum versus apo-Bir3 (BIR3 domain of XIAP): No appreciable differences
